# Source: ChEMBL document CHEMBL1201862, “PubChem BioAssay data set” (2004)
# Active and inactive are the calls of the source.
# What was measured:
# Galanin receptor type 3 = Galanin receptor type 3 (Homo sapiens, UniProt O60755); assay: Fluorescence-based cell-based primary high throughput dose response assay to identify antagonists of the Galanin Receptor 3 (GalR3).; type: functional
# cells [1] = type: functional, cell-based; conditions: HEK-CNG
# [2] = HEK-293T viability loss after treatment – luminescence, T-cell screen hits, cytotoxicity control for TCR NF-kB inhibitor project, dose response (AID 489026); type: functional, cell-based;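 further: cells exposed to compound about 14 hours before the viability readout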
# Beta Lactamase [3] = biological target: T1, Beta Lactamase (Pseudomonas aeruginosa, UniProt Q932Y6); assay: VIM-2 CCF2 hydrolysis inhibition, assay artifact filter – biochemical, FRET readout, CCF2 substrate, artefact control for selective VIM-2 inhibitor project, dose response (AID 1926)
# Beta Lactamase [4] = biological target: T1, Beta Lactamase; assay: concentration-dependent VIM-2 enzyme inhibition – biochemical, epi-absorbance readout, selective inhibitors, dose response (AID 1919)
# Beta-lactamase [5] = biological target: T2, Beta-lactamase (Pseudomonas aeruginosa, UniProt Q79MP6); assay: […] counterscreen for selective VIM-2 inhibitors: dose response biochemical high throughput screening assay to identify inhibitors of IMP-1 metallo-beta-lactamase.
# Beta-lactamase [6] = biological target: T2, Beta-lactamase; assay: inhibition of IMP-1 beta-lactamase activity – biochemical, epi-absorbance, selectivity assay for VIM-2 inhibitor project, dose response (AID 1920)
# Beta-lactamase [7] = biological target: Beta-lactamase (Salmonella choleraesuis (strain SC-B67), UniProt Q5J463); assay: Epi-absorbance-based counterscreen for selective VIM-2 inhibitors: dose response biochemical high throughput screening assay to identify inhibitors of TEM-1 serine-beta-lactamase.
# Protein S100-A4 = Protein S100-A4 (Homo sapiens, UniProt P26447); assay: human S100A4 peptide interaction inhibition curves – biochemical, fluorescence polarization, cherry-picked hits, dose response (AID 687001); type: functional
# [8] = biological target: 5-hydroxytryptamine receptor 2A (Mus musculus, UniProt P35363); type: functional, cell-based;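 further: CHO-K1 cells with tagged receptor and beta-arrestin; agonist potency measured as compound-induced activation of the receptor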
# Mu-type opioid receptor = Mu-type opioid receptor (Homo sapiens, UniProt P35372); type: functional, cell-based;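 further: U2OS cells with beta-arrestin recruitment to OPRM1 by beta-gal complementation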
# [9] = Counterscreen for activators of the function of SWI/SNF related, matrix associated, actin dependent regulator of chromatin, subfamily a, member 2 (SMARCA2, BRM): Luminescence-based cell-based high throughput dose response assay to identify non-selective compounds using the VP16 reporter assay.; type: functional
# [10] = biological target: SWI/SNF-related matrix-associated actin-dependent regulator of chromatin subfamily A member 2 (Homo sapiens, UniProt P51531); assay: Luminescence-based cell-based high throughput dose response assay to identify activators of the function of SWI/SNF related, matrix associated, actin dependent regulator of chromatin, subfamily a, member 2 (SMARCA2, BRM).; type: functional
# Vero = assay: viability loss in Vero cells – cell-based, plate reader, cherry-pick samples, cytotoxicity control, dose response (AID 687020); type: functional; conditions: Chlorocebus sabaeus
# [11] = biological target: T3, Sentrin-specific protease 8 (Homo sapiens, UniProt Q96LD8); type: functional
# T3 sequence (Q96LD8 whole entry): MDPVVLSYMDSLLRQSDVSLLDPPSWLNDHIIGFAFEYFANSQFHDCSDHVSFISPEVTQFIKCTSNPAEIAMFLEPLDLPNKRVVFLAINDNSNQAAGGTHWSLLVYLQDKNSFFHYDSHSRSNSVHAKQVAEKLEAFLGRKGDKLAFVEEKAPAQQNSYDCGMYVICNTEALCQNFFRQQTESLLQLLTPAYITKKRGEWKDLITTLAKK
# [12] = biological target: T3, Sentrin-specific protease 8; type: functional; remark: listed apart in the source
# [13] = biological target: T3, Sentrin-specific protease 8; type: functional; remark: listed apart in the source
# Caspase-3 [14] = biological target: T4, Caspase-3 (Homo sapiens, UniProt P42574); type: functional
# T4 sequence (P42574 whole entry): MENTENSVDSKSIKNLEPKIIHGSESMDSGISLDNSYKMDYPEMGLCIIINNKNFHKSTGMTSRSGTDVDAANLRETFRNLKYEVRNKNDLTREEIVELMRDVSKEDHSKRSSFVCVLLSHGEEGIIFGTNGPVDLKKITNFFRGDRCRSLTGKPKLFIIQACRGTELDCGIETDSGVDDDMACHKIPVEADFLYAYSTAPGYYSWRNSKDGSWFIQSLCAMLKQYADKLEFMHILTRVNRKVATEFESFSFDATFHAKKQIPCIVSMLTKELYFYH
# [15] = biological target: T5, Sentrin-specific protease 7 (Homo sapiens, UniProt Q9BQF6); type: functional;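 further: Luminescence-based dose-response confirmation of ultra-high-throughput screening hits, measuring inhibition of SENP7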
# T5 sequence (Q9BQF6 whole entry): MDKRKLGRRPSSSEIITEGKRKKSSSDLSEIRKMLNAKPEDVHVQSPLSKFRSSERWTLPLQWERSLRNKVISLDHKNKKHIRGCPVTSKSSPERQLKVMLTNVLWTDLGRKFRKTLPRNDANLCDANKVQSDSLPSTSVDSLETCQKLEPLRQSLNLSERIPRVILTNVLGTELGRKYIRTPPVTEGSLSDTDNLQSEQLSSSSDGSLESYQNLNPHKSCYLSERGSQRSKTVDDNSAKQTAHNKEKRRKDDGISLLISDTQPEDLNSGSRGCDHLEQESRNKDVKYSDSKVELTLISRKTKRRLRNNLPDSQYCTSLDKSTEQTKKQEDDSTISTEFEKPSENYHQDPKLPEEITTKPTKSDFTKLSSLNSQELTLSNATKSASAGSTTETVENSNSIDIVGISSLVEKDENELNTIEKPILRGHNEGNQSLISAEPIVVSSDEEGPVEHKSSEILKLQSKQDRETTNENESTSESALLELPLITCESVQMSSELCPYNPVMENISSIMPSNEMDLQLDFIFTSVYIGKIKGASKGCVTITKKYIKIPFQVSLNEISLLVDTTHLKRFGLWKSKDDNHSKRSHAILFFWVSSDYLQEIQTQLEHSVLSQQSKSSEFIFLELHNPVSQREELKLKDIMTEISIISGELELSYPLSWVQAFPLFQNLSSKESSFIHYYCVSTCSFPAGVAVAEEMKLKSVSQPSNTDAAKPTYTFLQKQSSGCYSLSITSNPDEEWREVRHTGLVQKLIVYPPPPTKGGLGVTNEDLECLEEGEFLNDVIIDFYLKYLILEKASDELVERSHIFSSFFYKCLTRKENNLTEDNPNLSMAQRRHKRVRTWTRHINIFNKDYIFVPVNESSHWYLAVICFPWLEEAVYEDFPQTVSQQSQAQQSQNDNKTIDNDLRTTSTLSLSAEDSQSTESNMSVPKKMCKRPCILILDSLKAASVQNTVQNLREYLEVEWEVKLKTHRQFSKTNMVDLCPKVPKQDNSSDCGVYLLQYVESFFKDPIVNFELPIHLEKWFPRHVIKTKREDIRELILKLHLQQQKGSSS
# Caspase-3 [16] = biological target: T4, Caspase-3; assay: Dose-response confirmation of uHTS inhibitor hits of Sentrin-Specific Protease 8 in a Caspase-3 Fluorescence assay.; type: functional
# [17] = biological target: T6, Sentrin-specific protease 6 (Homo sapiens, UniProt Q9GZR1); type: functional;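 further: Luminescence-based dose-response confirmatory assay of SENP6 inhibition, following up an ultra-high-throughput screen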
# T6 sequence (Q9GZR1 whole entry): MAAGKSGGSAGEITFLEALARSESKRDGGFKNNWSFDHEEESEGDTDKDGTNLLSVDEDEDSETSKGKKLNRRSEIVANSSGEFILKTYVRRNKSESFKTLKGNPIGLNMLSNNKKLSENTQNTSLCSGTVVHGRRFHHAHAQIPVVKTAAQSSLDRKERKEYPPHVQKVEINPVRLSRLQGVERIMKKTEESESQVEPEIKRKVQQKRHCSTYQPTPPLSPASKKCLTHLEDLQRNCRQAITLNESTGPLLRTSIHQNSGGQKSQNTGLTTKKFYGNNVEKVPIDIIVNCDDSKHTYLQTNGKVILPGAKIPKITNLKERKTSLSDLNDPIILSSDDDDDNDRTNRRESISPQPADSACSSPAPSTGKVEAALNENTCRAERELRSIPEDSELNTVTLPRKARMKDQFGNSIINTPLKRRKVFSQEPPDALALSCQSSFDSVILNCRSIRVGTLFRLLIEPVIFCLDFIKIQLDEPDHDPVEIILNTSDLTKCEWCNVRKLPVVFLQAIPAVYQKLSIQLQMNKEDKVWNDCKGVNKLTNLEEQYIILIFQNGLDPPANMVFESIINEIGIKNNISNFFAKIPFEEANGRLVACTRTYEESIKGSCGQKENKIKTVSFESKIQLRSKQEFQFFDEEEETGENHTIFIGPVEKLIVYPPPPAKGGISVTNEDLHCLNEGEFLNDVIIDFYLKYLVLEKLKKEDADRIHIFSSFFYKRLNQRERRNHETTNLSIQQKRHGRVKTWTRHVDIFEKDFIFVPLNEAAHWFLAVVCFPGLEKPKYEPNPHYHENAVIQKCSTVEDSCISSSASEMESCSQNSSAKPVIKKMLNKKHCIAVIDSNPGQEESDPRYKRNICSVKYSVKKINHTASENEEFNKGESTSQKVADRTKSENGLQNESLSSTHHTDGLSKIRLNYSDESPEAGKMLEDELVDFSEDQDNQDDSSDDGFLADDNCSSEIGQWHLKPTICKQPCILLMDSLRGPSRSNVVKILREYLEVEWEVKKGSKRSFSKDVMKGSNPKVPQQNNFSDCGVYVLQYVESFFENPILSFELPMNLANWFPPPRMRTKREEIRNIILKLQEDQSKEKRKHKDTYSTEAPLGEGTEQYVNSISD
# [18] = biological target: Mitochondrial peptide methionine sulfoxide reductase (Bos taurus, UniProt P54149); assay: Absorbance-based biochemical high throughput dose response assay for activators of Methionine sulfoxide reductase A (MsrA).; type: functional
# [19] = biological target: T7, Methionyl-tRNA synthetase, putative (Trypanosoma brucei brucei, UniProt Q38C91); type: functional, Trypanosoma brucei brucei strain 927/4 GUTat10.1
# [20] = Counterscreen for inhibitors of Trypanosoma brucei methionyl tRNA synthetase (MetRS): Luminescence-based cell-based high throughput dose response assay to identify compounds that are cytotoxic to Jurkat human T lymphocyte cells.; type: functional
# Cytochrome P450 2C9 = Cytochrome P450 2C9 (Homo sapiens, UniProt P11712)
# [21] = reduction of Shn3 3'UTR-driven luciferase in osteoblasts – cell-based, Clone20 osteoblasts, firefly luciferase, cherry-picked, dose response (AID 624132); type: functional;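 further: firefly luciferase luminescence from reporter carrying the Shn3 3'UTR in osteoblasts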
# [22] = loss of viability in HepG2 cells – cell-based, CellTiter-Glo, cherry-picked, cytotoxicity control for Shn3 inhibitor project, dose response (AID 624134); type: functional
# [23] = biological target: T7, Methionyl-tRNA synthetase, putative; type: functional, Trypanosoma brucei brucei strain 927/4 GUTat10.1; remark: listed apart in the source
# Cytochrome P450 3A4 = Cytochrome P450 3A4 (Homo sapiens, UniProt P08684);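 further: CYP3A4 tested as one member of a cytochrome P450 panel screen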
# Cytochrome P450 2D6 = Cytochrome P450 2D6 (Homo sapiens, UniProt P10635);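 further: CYP2D6 member of a cytochrome P450 panel assay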
# [24] = non-specific 3'UTR reporter inhibition in Clone20-Shn3RL – cell-based, Renilla luciferase, cherry-picked, counter-screen for Shn3 inhibitor project, dose response (AID 624133); type: functional
# cells [25] = type: functional, cell-based
# [26] = biological target: T8, Nuclear receptor subfamily 0 group B member 1 (Homo sapiens, UniProt P51843); type: functional, cell-based;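 further: HEK293T cells transfected with SF-1 and DAX-1 plus StAR promoter luciferase reporter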
# T8 sequence (P51843 whole entry): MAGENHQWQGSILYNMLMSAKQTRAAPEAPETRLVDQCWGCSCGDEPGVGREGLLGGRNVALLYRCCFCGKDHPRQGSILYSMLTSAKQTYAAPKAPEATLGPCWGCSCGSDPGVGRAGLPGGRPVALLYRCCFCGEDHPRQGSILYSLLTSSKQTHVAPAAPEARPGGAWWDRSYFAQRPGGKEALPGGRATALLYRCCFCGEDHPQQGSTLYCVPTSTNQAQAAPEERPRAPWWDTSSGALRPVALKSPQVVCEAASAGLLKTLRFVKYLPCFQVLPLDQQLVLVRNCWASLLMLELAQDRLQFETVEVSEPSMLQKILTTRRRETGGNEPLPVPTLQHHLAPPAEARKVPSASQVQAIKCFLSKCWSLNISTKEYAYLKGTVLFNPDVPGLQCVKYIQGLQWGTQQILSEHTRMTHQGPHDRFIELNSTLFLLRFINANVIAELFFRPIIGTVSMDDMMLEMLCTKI
# T7 sequence (Q38C91 whole entry): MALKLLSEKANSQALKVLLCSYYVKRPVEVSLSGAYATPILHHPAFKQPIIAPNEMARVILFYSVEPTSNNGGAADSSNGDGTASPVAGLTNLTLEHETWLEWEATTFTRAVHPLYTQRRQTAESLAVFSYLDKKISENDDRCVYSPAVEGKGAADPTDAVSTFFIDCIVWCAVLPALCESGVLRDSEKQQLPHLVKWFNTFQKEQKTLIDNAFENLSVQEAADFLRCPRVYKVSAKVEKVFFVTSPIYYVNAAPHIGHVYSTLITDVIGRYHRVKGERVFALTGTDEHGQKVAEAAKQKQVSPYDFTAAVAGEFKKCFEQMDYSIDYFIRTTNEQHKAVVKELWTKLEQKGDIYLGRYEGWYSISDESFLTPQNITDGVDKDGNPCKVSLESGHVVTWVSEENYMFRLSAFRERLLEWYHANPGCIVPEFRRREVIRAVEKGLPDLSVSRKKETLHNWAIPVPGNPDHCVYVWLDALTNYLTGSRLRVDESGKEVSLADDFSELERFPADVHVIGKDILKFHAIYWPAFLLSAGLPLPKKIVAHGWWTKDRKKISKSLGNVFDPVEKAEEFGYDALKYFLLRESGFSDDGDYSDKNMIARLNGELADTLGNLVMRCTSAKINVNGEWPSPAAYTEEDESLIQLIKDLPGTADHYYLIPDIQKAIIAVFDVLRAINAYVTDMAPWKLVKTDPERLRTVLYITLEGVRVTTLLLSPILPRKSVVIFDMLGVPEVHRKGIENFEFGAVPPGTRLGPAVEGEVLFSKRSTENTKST
# T1 sequence (Q932Y6 whole entry): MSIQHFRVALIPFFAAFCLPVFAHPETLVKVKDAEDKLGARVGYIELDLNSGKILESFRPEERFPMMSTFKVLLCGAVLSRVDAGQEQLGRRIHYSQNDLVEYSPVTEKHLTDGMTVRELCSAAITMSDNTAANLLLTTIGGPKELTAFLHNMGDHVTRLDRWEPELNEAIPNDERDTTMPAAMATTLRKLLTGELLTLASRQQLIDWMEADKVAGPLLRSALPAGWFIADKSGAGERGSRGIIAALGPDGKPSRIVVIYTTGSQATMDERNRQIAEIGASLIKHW
# T2 sequence (Q79MP6 whole entry): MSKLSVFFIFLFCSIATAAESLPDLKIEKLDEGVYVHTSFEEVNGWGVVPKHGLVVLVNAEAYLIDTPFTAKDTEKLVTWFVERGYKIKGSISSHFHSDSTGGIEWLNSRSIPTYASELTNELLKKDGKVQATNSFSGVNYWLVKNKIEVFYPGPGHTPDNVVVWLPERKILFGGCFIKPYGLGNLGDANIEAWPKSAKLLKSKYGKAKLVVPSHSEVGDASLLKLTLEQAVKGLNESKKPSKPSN
# Sequence of Beta-lactamase (Salmonella choleraesuis (strain SC-B67), UniProt Q5J463) (Q5J463 whole entry): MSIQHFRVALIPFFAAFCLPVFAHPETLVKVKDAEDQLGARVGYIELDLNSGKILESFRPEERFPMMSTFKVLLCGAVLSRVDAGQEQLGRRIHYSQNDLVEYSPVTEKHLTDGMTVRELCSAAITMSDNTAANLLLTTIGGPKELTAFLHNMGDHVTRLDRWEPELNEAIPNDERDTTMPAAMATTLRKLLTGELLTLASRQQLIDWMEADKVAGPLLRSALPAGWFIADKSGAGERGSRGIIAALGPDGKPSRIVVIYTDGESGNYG
# Sequence of Cytochrome P450 3A4 (P08684 whole entry): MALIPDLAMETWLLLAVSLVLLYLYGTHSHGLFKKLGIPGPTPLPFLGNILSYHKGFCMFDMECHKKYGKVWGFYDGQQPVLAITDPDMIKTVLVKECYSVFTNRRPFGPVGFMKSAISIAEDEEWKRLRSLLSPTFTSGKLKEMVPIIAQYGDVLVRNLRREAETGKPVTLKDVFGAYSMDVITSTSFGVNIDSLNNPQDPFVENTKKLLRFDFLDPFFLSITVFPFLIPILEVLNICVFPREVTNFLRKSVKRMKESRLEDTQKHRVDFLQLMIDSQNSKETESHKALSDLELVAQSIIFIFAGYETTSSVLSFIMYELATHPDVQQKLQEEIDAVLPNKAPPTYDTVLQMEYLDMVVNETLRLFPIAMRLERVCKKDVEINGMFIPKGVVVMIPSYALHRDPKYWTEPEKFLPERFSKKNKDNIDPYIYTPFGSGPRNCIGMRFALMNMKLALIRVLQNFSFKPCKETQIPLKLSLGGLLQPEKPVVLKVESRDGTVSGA
# Sequence of SWI/SNF-related matrix-associated actin-dependent regulator of chromatin subfamily A member 2 (P51531 whole entry): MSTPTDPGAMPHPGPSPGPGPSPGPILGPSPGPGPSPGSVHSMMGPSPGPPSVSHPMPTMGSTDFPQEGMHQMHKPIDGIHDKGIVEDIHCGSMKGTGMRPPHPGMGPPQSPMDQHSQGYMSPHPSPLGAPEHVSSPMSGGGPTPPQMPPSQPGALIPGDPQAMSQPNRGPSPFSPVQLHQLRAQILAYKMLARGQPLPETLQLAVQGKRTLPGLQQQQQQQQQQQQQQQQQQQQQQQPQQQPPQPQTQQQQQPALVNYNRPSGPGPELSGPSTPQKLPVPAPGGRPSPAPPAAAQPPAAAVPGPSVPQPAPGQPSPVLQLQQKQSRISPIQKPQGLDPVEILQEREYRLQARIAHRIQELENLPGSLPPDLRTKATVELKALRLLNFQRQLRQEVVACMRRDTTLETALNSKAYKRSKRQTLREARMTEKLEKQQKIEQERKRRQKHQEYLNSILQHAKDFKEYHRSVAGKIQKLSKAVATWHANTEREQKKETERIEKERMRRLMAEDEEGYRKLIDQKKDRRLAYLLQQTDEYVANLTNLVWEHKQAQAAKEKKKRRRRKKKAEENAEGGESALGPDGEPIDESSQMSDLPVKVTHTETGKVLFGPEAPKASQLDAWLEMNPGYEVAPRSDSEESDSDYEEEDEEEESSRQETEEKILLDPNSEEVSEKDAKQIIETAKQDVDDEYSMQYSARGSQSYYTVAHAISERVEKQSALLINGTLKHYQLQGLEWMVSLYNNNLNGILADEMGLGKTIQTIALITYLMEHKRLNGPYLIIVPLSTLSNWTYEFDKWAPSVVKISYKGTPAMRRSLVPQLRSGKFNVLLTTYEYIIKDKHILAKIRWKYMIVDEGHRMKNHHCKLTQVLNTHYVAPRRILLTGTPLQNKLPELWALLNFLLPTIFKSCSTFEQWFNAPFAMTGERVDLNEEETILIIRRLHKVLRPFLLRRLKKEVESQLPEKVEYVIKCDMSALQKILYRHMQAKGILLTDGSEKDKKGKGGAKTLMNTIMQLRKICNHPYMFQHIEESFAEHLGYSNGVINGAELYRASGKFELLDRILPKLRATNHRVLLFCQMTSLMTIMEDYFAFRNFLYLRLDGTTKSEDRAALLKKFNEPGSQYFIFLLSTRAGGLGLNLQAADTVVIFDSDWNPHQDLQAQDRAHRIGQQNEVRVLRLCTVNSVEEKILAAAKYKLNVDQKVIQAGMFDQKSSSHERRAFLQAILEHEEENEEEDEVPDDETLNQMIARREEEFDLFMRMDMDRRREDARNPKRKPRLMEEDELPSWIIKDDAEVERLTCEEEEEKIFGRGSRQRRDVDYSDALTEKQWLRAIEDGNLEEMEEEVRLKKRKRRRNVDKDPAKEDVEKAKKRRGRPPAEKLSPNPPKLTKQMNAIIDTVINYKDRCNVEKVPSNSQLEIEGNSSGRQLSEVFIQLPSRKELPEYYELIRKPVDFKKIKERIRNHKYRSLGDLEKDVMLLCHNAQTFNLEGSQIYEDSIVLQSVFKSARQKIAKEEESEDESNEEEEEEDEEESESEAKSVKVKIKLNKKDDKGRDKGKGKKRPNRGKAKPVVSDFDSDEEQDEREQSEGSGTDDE
# Sequence of Cytochrome P450 2D6 (P10635 whole entry): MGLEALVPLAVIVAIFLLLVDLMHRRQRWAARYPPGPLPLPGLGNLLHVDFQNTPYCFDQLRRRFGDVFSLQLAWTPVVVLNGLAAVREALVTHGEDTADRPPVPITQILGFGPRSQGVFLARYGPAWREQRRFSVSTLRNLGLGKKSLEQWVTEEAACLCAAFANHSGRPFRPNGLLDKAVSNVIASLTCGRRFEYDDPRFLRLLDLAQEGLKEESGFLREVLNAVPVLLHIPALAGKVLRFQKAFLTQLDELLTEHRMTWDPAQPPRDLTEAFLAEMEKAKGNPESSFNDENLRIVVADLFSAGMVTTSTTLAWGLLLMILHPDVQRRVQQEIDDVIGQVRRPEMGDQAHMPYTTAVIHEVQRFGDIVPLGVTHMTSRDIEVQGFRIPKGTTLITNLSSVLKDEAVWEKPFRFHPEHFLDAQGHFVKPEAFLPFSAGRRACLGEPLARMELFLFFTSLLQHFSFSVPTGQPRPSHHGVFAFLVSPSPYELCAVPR
# Sequence of Galanin receptor type 3 (O60755 whole entry): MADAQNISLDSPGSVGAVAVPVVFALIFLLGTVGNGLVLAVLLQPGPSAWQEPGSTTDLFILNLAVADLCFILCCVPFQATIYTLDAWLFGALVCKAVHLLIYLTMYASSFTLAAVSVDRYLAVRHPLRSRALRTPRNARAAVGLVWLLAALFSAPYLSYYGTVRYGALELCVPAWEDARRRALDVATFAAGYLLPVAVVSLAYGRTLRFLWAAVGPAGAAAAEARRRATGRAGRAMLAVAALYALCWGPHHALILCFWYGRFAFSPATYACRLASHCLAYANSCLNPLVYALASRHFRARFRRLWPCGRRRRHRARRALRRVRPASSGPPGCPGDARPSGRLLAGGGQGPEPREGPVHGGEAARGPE
# Sequence of Cytochrome P450 2C9 (P11712 whole entry): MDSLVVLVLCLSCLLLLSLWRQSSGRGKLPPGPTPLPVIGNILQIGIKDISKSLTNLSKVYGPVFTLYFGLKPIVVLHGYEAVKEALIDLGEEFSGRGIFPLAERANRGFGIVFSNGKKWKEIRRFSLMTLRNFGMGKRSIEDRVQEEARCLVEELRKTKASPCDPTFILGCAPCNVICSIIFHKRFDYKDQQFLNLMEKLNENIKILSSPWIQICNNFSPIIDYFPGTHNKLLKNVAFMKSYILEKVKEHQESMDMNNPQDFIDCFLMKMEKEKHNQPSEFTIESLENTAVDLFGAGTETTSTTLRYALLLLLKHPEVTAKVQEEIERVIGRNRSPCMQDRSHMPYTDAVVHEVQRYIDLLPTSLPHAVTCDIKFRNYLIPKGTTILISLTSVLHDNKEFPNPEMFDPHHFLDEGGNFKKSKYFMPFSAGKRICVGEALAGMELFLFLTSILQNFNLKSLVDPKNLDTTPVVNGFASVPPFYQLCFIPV
compound,measurement,setting,value
CCCCc1ccc(NC(=O)c2ccc(N(C)S(C)(=O)=O)cc2)cc1,IC50,Galanin receptor type 3,0.996 µM (active)
same,EC50,cells [1],> 29.9 µM (inactive)
same,IC50,[2],> 80 µM (inactive)
COc1ccc(C(=O)C2=C(O)C(=O)N(Cc3ccco3)C2c2cc(OC)ccc2OC)cc1 (stereo not drawn),IC50,Beta Lactamase [3],5.61 µM (active)
same,IC50,Beta Lactamase [4],12.8 µM (inactive)
same,IC50,Beta-lactamase [5],> 59.6 µM (inactive)
same,IC50,Beta-lactamase [6],> 59.6 µM (inactive)
same,IC50,Beta-lactamase [7],> 59.6 µM (inactive)
O=C(CCc1ccccc1Cl)NC1CCCN(c2ccc(C(F)(F)F)cn2)C1 (stereo not drawn),AC50,Protein S100-A4,9.67 µM (active)
Cc1ccc(C)c(CN2CCN(c3ncccn3)CC2)c1,EC50,[8],76 µM (inactive)
same,EC50,Mu-type opioid receptor,92.4 µM (inactive)
CCCCn1c(=N)n(CC(=O)c2ccc(OC)cc2)c2ccccc21,EC50,[9],> 91.1 µM (inactive)
same,EC50,[10],> 91.1 µM (inactive)
CC1(C(=O)NCc2cccc(C(F)(F)F)c2)CCN1Cc1cc2ccccc2o1 (stereo not drawn),AC50,Vero,20.4 µM (active)
O=C(COC(=O)c1ccc([N+](=O)[O-])s1)NNC(=O)c1ccccc1,IC50,[11],4.94 µM (active)
same,IC50,[12],2.3 µM (active)
same,IC50,[13],4.2 µM (active)
same,IC50,Caspase-3 [14],6.74 µM (active)
same,IC50,[15],6.91 µM (active)
same,IC50,Caspase-3 [16],84.6 µM (inactive)
same,IC50,[17],4.34 µM (active)
same,EC50,[18],36.1 µM (inactive)
Nc1nc(N)c(-c2cccc(C(F)(F)F)c2)c(Cc2cccc(C(F)(F)F)c2)n1,IC50,[19],19.5 µM (inactive)
same,IC50,[20],20.7 µM (inactive)
same,AC50,Cytochrome P450 2C9,5.01 µM (inconclusive)
same,AC50,[21],3.6 µM (active)
same,AC50,[22],5.88 µM (active)
same,IC50,[23],12.7 µM (inactive)
same,AC50,Cytochrome P450 3A4,3.16 µM (inconclusive)
same,AC50,Cytochrome P450 2D6,3.98 µM (inconclusive)
same,AC50,[24],3.87 µM (active)
Cn1nnnc1SCC(=O)Nc1ccc2c(c1)OCCO2,IC50,cells [25],> 67.5 µM (inactive)
same,IC50,[26],> 67.5 µM (inactive)
